Data set [1] is described as follows: Solubility in water / physical properties. Type of data set: physicochemical.
Another data set concerns bovine serum albumin. The note with it: pH 8.5; compared with same ester of N-hydroxysuccinimide; cited from earlier work.
For data set [2] the following is noted: prior-art agents; cited from earlier work.
For data set [3] the following is noted: pH 7.4; cited from earlier work.
The test system of a further data set is cells. Particulars: reacted with fluoresceinated avidin; compared with biotin-p-nitrophenyl ester; cited from earlier work.
The test system of data set [4] is sheep red blood cells (SRBC). The data set is described as follows: Labelling of sheep red blood cells, cytofluorometry. It counts as cell-based. Particulars: excitation at 360 nm. The method, then: Dansyl-sac-HNSA ester was prepared as described in Example 1A using molar equivalents of HNSA, dicyclohexylcarbodiimide and dansyl-ε-aminocaproic acid (from Sigma Chemicals). For use in coupling to sheep red blood cells (SRBC) the dansyl-sac-HNSA ester (50 mg) was prepared in 7 ml of 0.28 M cacodylate buffer, pH 6.9.
Sheep red blood cells were washed 4 times (400×g, 8 minutes) in G-PBS buffer (5% α-D-glucose w/v in PBSCa-Mg). To 1 ml of packed red blood cells was added the 7 ml of dansyl-sac-HNSA ester dropwise with gentle mixing for 10 minutes at room temperature. The reaction was done in foil-wrapped glassware to protect against photodecomposition. Following the reaction the cells were washed in cold G-PBS buffer containing 1% heat inactivated (56° C., 30 minutes) FCS (fetal calf serum) until the supernatants were colorless (a minimum of 4 washes).
The dansyl-sac-HNSA labelled SRBC were monitored using a Coulter EPICS V Cytofluorometer immediately after labeling and at 24 hours. […] This translates to an increase in intensity 720 times over unlabeled cells.

The subject of data set [5] is bovine serum albumin (BSA). Particulars: for Percent Ester Remaining in Solution: pH 7.5, room temperature. The protocol: (§1) About 0.5 mg of the purified mal-sac HNSA ester from Example 1A was dissolved in 1 ml of distilled water.
The difference between the post-base and initial free HNSA concentration represents the concentration of ester. From the actual concentration of ester the amount of ester to be added to the protein solution to achieve the desired degree of substitution can be calculated.
A total of 22 mg ([…]) of BSA (of molecular weight 66,296) was dissolved in 2.0 ml of 0.01 M phosphate buffer at pH 7.5 to yield a total amino concentration of 1.0×10^-2 moles per liter (assuming 59 lysines/BSA molecule). […] The reaction was carried out at room temperature. […]

For a further data set, the system named is streptavidin. Set-up: species or system Streptomyces avidinii. The method, then: A total of 0.26 mg (4.3×10^-3 μmoles) of streptavidin purified from Streptomyces avidinii by the method of Hoffman et al., PNAS, 77, 4666-4668 (1980) was dissolved in 1.0 ml of phosphate buffered saline at pH 7.4 to yield a total amine concentration of 6.93×10^-5 M (16 NH2 /streptavidin). […] Good separation was achieved between the protein and the excess HNSA and unreacted HNSA ester. […] In this case […] of the amino groups on streptavidin (12.9 out of 16.0) reacted.

The next data set concerns biotinylated polylysine. Particulars: over a 30 minute period; pH 7.4.
Another data set in a line: Stability in water. Particulars: no nucleophiles added. It counts as physicochemical.
The next data set in a line: Storage stability. Particulars: purified ester, stored desiccated. It counts as physicochemical.
Data set [6] in a line: Hydrolysis of ester by sodium hydroxide. It counts as physicochemical. Particulars: 4.8 N sodium hydroxide added, pH 7.0 phosphate buffer aliquot. The method, then:
as §1

For a further data set, the system named is avidin. Particulars: for Percent Ester Remaining: room temperature.
The test system of data set [7] is Horseradish Peroxidase (HRP). The note with it: over a 30 minute period; pH 7.0.
Procedure: A total of 40 mg (1.0 μmoles) of HRP (Sigma Chemical Co.) was dissolved in 0.5 ml of 0.1 M phosphate buffer at pH 7.0 to yield an amine concentration of 3.7×10^-3 M. Then, 5 mg (1.1×10^-5 moles) of the mal-sac HNSA ester of Example 1A, calculated from the data in Example 2A, was dissolved in 0.5 ml of the HRP solution. The mixture was stirred at room temperature. Five μl aliquots were removed from the incubating solution at timed intervals and were each diluted into 1.0 ml of 0.01 M sodium phosphate buffer at pH 7.0. The spectrum of each diluted aliguot was recorded and the absorbance at 406 nm measured. A total of 50 μl of 4.8 N NaOH was then added to each aliquot, each aliquot was mixed and its spectrum retaken and the absorbance at 406 nm measured. Because HRP has an absorbance at 406 nm due to its heme group and this absorbance changes after addition of sodium hydroxide, corrections for the absorbances due to the HRP were made on every dilution.
After 30 minutes the reaction was stopped using a Sephadex G-25 column as described in Example 2A. Fractions were collected and measured for absorbance at 406 nm and 280 nm.

Like-named read-outs stand apart in the source and are kept apart here.

Procedure for biotinylated polylysine: Biotinylated polylysine (0.6 ml; 73,000 D average mol. wt.) was adjusted to pH 7.4 with 0.015 ml of 2.5 N NaOH. Approximately 5 mg of mal-sac-HNSA was added to the biotinylated polylysine and stirred at room temperature. Ten μl aliquots were removed from the mixture at timed intervals and diluted into 1.0 ml of 0.01 M phosphate buffer at pH 7.0. The spectrum of each diluted aliquot was measured and the absorbance at 406 nm recorded. A total of 50 μl of 4.8 N NaOH solution was then added to each aliquot, mixed, and the spectrum retaken.
After 30 minutes of incubation time, the reaction was stopped using a Sephadex G-25 column, and the high molecular weight (biotin)4 -polylysine-(sac-mal)18 was well separated from excess HNSA and unreacted mal-sac-HNSA.

As for `O=C(CCSSc1ccccn1)Oc1ccc(S(=O)(=O)O)cc1[N+](=O)[O-]` [3-(2-pyridyldithio)propionyl-HNSA, 3-(2-pyridyldithio)propionyl-HNSA ester], the “physical properties relative to mal-sac HNSA ester” value in [1] is “essentially the same properties”.

As for `O=C(CCCCCNc1ccc([N+](=O)[O-])cc1[N+](=O)[O-])Oc1ccc(S(=O)(=O)O)cc1[N+](=O)[O-]` [N-2,4-dinitrophenyl-6-aminocaproic acid ester of HNSA], the “efficiency in conjugating to bovine serum albumin” value in the data set with bovine serum albumin is “more efficient”.

Regarding `O=C(CCSSc1ccccn1)ON1C(=O)CCC1=O` [SPDP, N-succinimidyl-3-(2-pyridyldithio)propionate], in data set [2], the water solubility entry is “lack of water solubility”.

Turning to `O=C(CNC(=O)OCc1ccccc1)Oc1ccc(S(=O)(=O)O)cc1[N+](=O)[O-]` [Z-gly-HNSA, N-benzyloxycarbonyl-gly-HNSA], the “rate of aminolysis by glycine relative to hydrolysis rate” value in data set [3] is recorded as “considerably higher than its hydrolysis rate”.

For the compound `O=C1N[C@H]2[C@H](CS[C@H]2CCCCC(=O)Oc2ccc(S(=O)(=O)O)cc2[N+](=O)[O-])N1` [biotin-HNSA], the “amino groups of the polylysine polypeptide reacted” value in the data set on polylysine (7 minutes) is reported as 28%. Moreover, the reaction rate result in the data set with polylysine (over a 5 minute period, pH 7.4) is “essentially linear”. Besides, in data set [1], the “physical properties relative to mal-sac HNSA ester” value was “essentially the same physical properties”. The “increase in fluorescence of treated cells” value in the data set on cells is “much larger increase in fluorescence”.

As to `CN(C)c1cccc2c(S(=O)(=O)NCCCCCC(=O)Oc3ccc(S(=O)(=O)O)cc3[N+](=O)[O-])cccc12` [dansyl-sac-HNSA], the “increase in intensity over unlabeled cells” value in data set [4] stood at 720 times.

Regarding `O=C(CCCCCN1C(=O)C=CC1=O)Oc1ccc(S(=O)(=O)O)cc1[N+](=O)[O-]` [mal-sac-HNSA, N-maleimido-6-aminocaproyl-HNSA], the “Concentration of Ester” value in data set [5] (0 minutes) was found to be 0.000156 mol/L; in data set [5] (5 minutes) it was 0.000116 mol/L; in data set [5] (9 minutes), 0.000103 mol/L; in data set [5] (14 minutes), 0.000111 mol/L. Further, the “Percent Ester Remaining in Solution” value in [5] (0 minutes) is 94.0%; in data set [5] (5 minutes) it was 82.9%; in data set [5] (9 minutes), 78.3%; in data set [5] (14 minutes), 74.5%. Besides, in data set [5] (15 minutes), the ester reacted was 0.0026 mol/L. Further, in [5] (15 minutes, of 59 ε-amino groups), the “ε-amino groups of BSA substituted” value is 25.9%. Besides, the “Concentration of HNSA” value in data set [5] (With NaOH, 0 minutes) was determined as 0.000166 mol/L; in data set [5] (With NaOH, 5 minutes) it was 0.00014 mol/L; in [5] (With NaOH, 9 minutes) it was 0.000132 mol/L; in data set [5] (With NaOH, 14 minutes), 0.000149 mol/L; in [5] (Without NaOH, 0 minutes) it was 1.03e-05 mol/L; in [5] (Without NaOH, 5 minutes), 2.44e-05 mol/L. Also, the “Concentration of HNSA” value in data set [5] (Without NaOH, 9 minutes) was 2.87e-05 mol/L; in data set [5] (Without NaOH, 14 minutes), 3.77e-05 mol/L. Also, the reaction rate entry in data set [5] (over a 15 minute period) is given as “essentially linear”; in the data set with streptavidin (over the period measured, pH 7.4) it was “essentially linear”; in the data set on biotinylated polylysine, “essentially linear”; in the data set on avidin (FIG. 3) it was “linear”; in data set [7], “essentially linear”. Besides, in the data set with streptavidin (20 minutes), the “amino groups on streptavidin reacted” value is on record as 79%. The “number of amino groups on streptavidin reacted” value in the data set with streptavidin (20 minutes, out of 16.0) turned out to be 12.9. The solubility in water entry in [1] was “dissolve fully in water”. Further, the stability in water result in “Stability in water” is given as “stable in water for several hours”. For the same compound, the storage stability result in “Storage stability” is “stable for extended periods”. In addition, in [6], the hydrolysis by hydroxide result is recorded as “rapidly hydrolyzed”. Also, the “Percent Ester Remaining” value is recorded as 89% in the data set with avidin (0 minutes), 86% with avidin (5 minutes), 78% with avidin (20 minutes) and 73% with avidin (30 minutes). In the data set on avidin (30 minutes, 27 amino groups per avidin molecule), the “amino groups of avidin reacted” value came out at 13.5 amino groups.

Take “mal-sac-BSA: product of the first reaction of mal-sac-HNSA ester with bovine serum albumin”: the “mal-sac groups per molecule” value in [5] (15 minutes) was 16 mal-sac groups per molecule.

The record behind these values is US4943636A, “Certain pyridyl-di-sulfide-alkylenecarbonxylate-ortho-nitro-phenylsulfonic acid esters useful for coupling biological materials” (Cetus Corporation, priority 1987, dated 1990).
